According to US11414416B1, “Compounds and uses thereof” (Foghorn Therapeutics Inc., priority 2019, dated 2022):

Target: Nanoluciferase-BRD9 fusion protein (Homo sapiens (Human), UniProt Q9H8M2)
Experiment: SYO1 BRD9 NanoLuc degradation assay
Type: cell-based
Conditions: Table 5B; SYO-1 cells expressing 3×FLAG-NLuc-BRD9, 6 hours; read-out: SYO1 BRD9-NanoLuc degradation IC50
Description: Procedure: A stable SYO-1 cell line expressing 3×FLAG-NLuc-BRD9 was generated. On day 0 cells were seeded in 30 μL media into each well of 384-well cell culture plates. The seeding density was 8000 cells/well. […] Subsequently plates were incubated for 6 hours in a standard tissue culture incubator and equilibrated at room temperature for 15 minutes. Nanoluciferase activity was measured by adding 15 μL of freshly prepared Nano-Glo Luciferase Assay Reagent (Promega N1130), shaking the plates for 10 minutes and reading the bioluminescence using an EnVision reader.
DMSO treated cells are employed as High Control (HC) and 1 μM of a known BRD9 degrader standard treated cells are employed as Low Control (LC).

Chain of Nanoluciferase-BRD9 fusion protein (Q9H8M2 whole entry, the tested form may be a part): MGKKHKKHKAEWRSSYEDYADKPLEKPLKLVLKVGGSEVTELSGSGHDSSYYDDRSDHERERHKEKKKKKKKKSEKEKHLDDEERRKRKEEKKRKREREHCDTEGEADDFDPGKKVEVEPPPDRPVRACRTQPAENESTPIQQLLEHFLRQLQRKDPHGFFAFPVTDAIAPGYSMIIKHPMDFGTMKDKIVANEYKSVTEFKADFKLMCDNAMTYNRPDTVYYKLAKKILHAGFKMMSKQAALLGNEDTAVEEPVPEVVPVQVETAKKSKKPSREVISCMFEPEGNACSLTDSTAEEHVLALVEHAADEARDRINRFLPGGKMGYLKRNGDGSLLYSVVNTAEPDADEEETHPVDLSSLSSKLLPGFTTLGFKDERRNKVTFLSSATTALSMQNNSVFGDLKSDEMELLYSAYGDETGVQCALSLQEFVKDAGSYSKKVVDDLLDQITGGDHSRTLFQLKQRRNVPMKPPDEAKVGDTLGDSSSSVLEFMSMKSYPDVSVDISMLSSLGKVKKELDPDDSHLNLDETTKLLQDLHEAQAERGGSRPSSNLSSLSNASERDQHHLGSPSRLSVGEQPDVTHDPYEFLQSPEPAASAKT

SMILES | DC50 [nM]
COc1cc(-c2cn(C)c(=O)c3cnccc23)cc(OC)c1CN1CCC2(CC1)CN(C(=O)CCC#Cc1ccc3c(c1)C(=O)N(C1CCC(=O)NC1=O)C3=O)C2 (stereo not drawn) [Compound D217] | < 10
COc1cc(-c2cn(C)c(=O)c3cnccc23)cc(OC)c1CN1CC2(CCN(C(=O)CCC#Cc3ccc4c(c3)C(=O)N(C3CCC(=O)NC3=O)C4=O)C2)C1 (stereo not drawn) [Compound D218] | < 10
COc1cc(-c2cn(C)c(=O)c3cnccc23)cc(OC)c1CN1CC2(CCN(C(=O)CCC#Cc3ccc4c(c3)C(=O)N(C3CCC(=O)NC3=O)C4=O)CC2)C1 (stereo not drawn) [Compound D219] | < 10
COc1cc(-c2cn(C)c(=O)c3cnccc23)cc(OC)c1CN1CCC2(CCC(C(=O)CCC#Cc3ccc4c(c3)C(=O)N(C3CCC(=O)NC3=O)C4=O)C2)CC1 (stereo not drawn) [Compound D220] | < 10
COc1cc(-c2cn(C)c(=O)c3cnccc23)cc(OC)c1CN1CCC(C(=O)N2CCC3(CC2)CC(Oc2ccc4c(c2)C(=O)N(C2CCC(=O)NC2=O)C4=O)C3)CC1 (stereo not drawn) [Compound D221] | < 10
COc1cc(-c2cn(C)c(=O)c3cnccc23)cc(OC)c1CN(C)CCCCN1CCC2(CC1)CN(c1ccc3c(c1)C(=O)N(C1CCC(=O)NC1=O)C3=O)C2 (stereo not drawn) [Compound D222] | < 10
COc1cc(-c2cn(C)c(=O)c3cnccc23)cc(OC)c1CN(C)CCCCN1CC2(CCN(c3ccc4c(c3)C(=O)N(C3CCC(=O)NC3=O)C4=O)CC2)C1 (stereo not drawn) [Compound D223] | < 10
COc1cc(-c2cn(C)c(=O)c3cnccc23)cc(OC)c1CN(C)CCCCN1CCC2(CC1)CCN(c1ccc3c(c1)C(=O)N(C1CCC(=O)NC1=O)C3=O)C2 (stereo not drawn) [Compound D224] | < 10
COc1cc(-c2cn(C)c(=O)c3cnccc23)cc(OC)c1CN(C)CCCCN1CCC2(CCN(c3ccc4c(c3)C(=O)N(C3CCC(=O)NC3=O)C4=O)C2)C1 (stereo not drawn) [Compound D225] | < 10
COc1cc(-c2cn(C)c(=O)c3cnccc23)cc(OC)c1CN(C)CCCCN1CCC2(C1)CN(c1ccc3c(c1)C(=O)N(C1CCC(=O)NC1=O)C3=O)C2 (stereo not drawn) [Compound D226] | < 10
COc1cc(-c2cn(C)c(=O)c3cnccc23)cc(OC)c1CN(C)CCCCN1CCC2C1CN2c1ccc2c(c1)C(=O)N(C1CCC(=O)NC1=O)C2=O (stereo not drawn) [Compound D227] | < 10
COc1cc(-c2cn(C)c(=O)c3cnccc23)cc(OC)c1CN1CC(CC(=O)N[C@@H]2C[C@]23CCN(c2ccc4c(c2)C(=O)N(C2CCC(=O)NC2=O)C4=O)C3)C1 (stereo partly drawn) [Compound D231] | 100 to 1000
COc1cc(-c2cn(C)c(=O)c3cnccc23)cc(OC)c1CN1CC(CC(=O)N[C@@H]2C[C@@]23CCN(c2ccc4c(c2)C(=O)N(C2CCC(=O)NC2=O)C4=O)C3)C1 (stereo partly drawn) [Compound D232] | 10 to 100
COc1cc(-c2cn(C)c(=O)c3cnccc23)cc(OC)c1CN1CC(CC(=O)N2CC(Oc3ccc4c(c3)C(=O)N(C3CCC(=O)NC3=O)C4=O)C2)C1 (stereo not drawn) [Compound D233] | 100 to 1000
COc1cc(-c2cn(C)c(=O)c3cnccc23)cc(OC)c1CN1CC(CC(=O)N2CC3(CC(Oc4ccc5c(c4)C(=O)N(C4CCC(=O)NC4=O)C5=O)C3)C2)C1 (stereo not drawn) [Compound D234] | 10 to 100
COc1cc(-c2cn(C)c(=O)c3cnccc23)cc(OC)c1CN1CCC2(CC1)CN(CC#Cc1ccc3c(c1)C(=O)N(C1CCC(=O)NC1=O)C3=O)C2 (stereo not drawn) [Compound D235] | < 10

SMILES | DC50 [nM]
COc1cc(-c2cn(C)c(=O)c3cnccc23)cc(OC)c1CN1CCC2C(C1)CN2CC#Cc1ccc2c(c1)C(=O)N(C1CCC(=O)NC1=O)C2=O (stereo not drawn) [Compound D236] | < 10
COc1cc(-c2cn(C)c(=O)c3cnccc23)cc(OC)c1CN1CCN(CC#Cc2ccc3c(c2)C(=O)N(C2CCC(=O)NC2=O)C3=O)CC1 (stereo not drawn) [Compound D237] | < 10
COc1cc(-c2cn(C)c(=O)c3cnccc23)cc(OC)c1CN1CCC2(C1)CN(CCCC#Cc1ccc3c(c1)C(=O)N(C1CCC(=O)NC1=O)C3=O)C2 (stereo not drawn) [Compound D238] | < 10
COc1cc(-c2cn(C)c(=O)c3cnccc23)cc(OC)c1CN1CC2(CCN(C(=O)C#Cc3ccc4c(c3)C(=O)N(C3CCC(=O)NC3=O)C4=O)C2)C1 (stereo not drawn) [Compound D239] | < 10
COc1cc(-c2cn(C)c(=O)c3cnccc23)cc(OC)c1CN1CCC2(CC1)CCN(C(=O)C#Cc1ccc3c(c1)C(=O)N(C1CCC(=O)NC1=O)C3=O)C2 (stereo not drawn) [Compound D240] | < 10
COc1cc(-c2cn(C)c(=O)c3cnccc23)cc(OC)c1CN1CCC2(C1)CN(C(=O)C#Cc1ccc3c(c1)C(=O)N(C1CCC(=O)NC1=O)C3=O)C2 (stereo not drawn) [Compound D241] | < 10
COc1cc(-c2cn(C)c(=O)c3cnccc23)cc(OC)c1CN1CCC2C(C1)CN2C(=O)C#Cc1ccc2c(c1)C(=O)N(C1CCC(=O)NC1=O)C2=O (stereo not drawn) [Compound D242] | < 10
COc1cc(-c2cn(C)c(=O)c3cnccc23)cc(OC)c1CN1CCC2C(C1)CN2C(=O)CCC#Cc1ccc2c(c1)C(=O)N(C1CCC(=O)NC1=O)C2=O (stereo not drawn) [Compound D243] | < 10
COc1cc(-c2cn(C)c(=O)c3cnccc23)cc(OC)c1CN(C)CCCCNC1CCC12CN(c1ccc3c(c1)C(=O)N(C1CCC(=O)NC1=O)C3=O)C2 (stereo not drawn) [Compound D245] | 10 to 100
COc1cc(-c2cn(C)c(=O)c3cnccc23)cc(OC)c1CN(C)CCCCNC1CC2(CCN(c3ccc4c(c3)C(=O)N(C3CCC(=O)NC3=O)C4=O)CC2)C1 (stereo not drawn) [Compound D247] | < 10
COc1cc(-c2cn(C)c(=O)c3cnccc23)cc(OC)c1CN(C)CCCCNC1CC2(C1)CN(c1ccc3c(c1)C(=O)N(C1CCC(=O)NC1=O)C3=O)C2 (stereo not drawn) [Compound D250] | < 10
COc1cc(-c2cn(C)c(=O)c3cnccc23)cc(OC)c1CN(C)CCCCNC1CC12CCN(c1ccc3c(c1)C(=O)N(C1CCC(=O)NC1=O)C3=O)C2 (stereo not drawn) [Compound D252] | < 10
COc1cc(-c2cn(C)c(=O)c3cnccc23)cc(OC)c1CN(C)CCCCN1CC2(C1)CN(c1ccc3c(c1)C(=O)N(C1CCC(=O)NC1=O)C3=O)C2 (stereo not drawn) [Compound D254] | < 10
COc1cc(-c2cn(C)c(=O)c3cnccc23)cc(OC)c1CN(C)C(=O)CCCCNC1CCC12CN(c1ccc3c(c1)C(=O)N(C1CCC(=O)NC1=O)C3=O)C2 (stereo not drawn) [Compound D255] | < 10
COc1cc(-c2cn(C)c(=O)c3cnccc23)cc(OC)c1CN(C)CCCCNC1CC2(C1)CC(Oc1ccc3c(c1)C(=O)N(C1CCC(=O)NC1=O)C3=O)C2 (stereo not drawn) [Compound D257] | < 10
COc1cc(-c2cn(C)c(=O)c3cnccc23)cc(OC)c1CN(C)C(=O)CCCCNC1CC12CCN(c1ccc3c(c1)C(=O)N(C1CCC(=O)NC1=O)C3=O)C2 (stereo not drawn) [Compound D258] | < 10

Next, values leading:

DC50 [nM] | SMILES
< 10 | COc1cc(-c2cn(C)c(=O)c3cnccc23)cc(OC)c1CN(C)CCCCN1CCC2(CC1)CC(Oc1ccc3c(c1)C(=O)N(C1CCC(=O)NC1=O)C3=O)C2 (stereo not drawn) [Compound D228]
< 10 | COc1cc(-c2cn(C)c(=O)c3cnccc23)cc(OC)c1CN(C)C(=O)CCCCN1CC(Oc2ccc3c(c2)C(=O)N(C2CCC(=O)NC2=O)C3=O)C1 (stereo not drawn) [Compound D229]
< 10 | COc1cc(-c2cn(C)c(=O)c3cnccc23)cc(OC)c1CN(C)C(=O)CCCCN1CC2(CC(Oc3ccc4c(c3)C(=O)N(C3CCC(=O)NC3=O)C4=O)C2)C1 (stereo not drawn) [Compound D230]
< 10 | COc1cc(-c2cn(C)c(=O)c3cnccc23)cc(OC)c1CN(C)CCCCN1CCCC2(CC(Oc3ccc4c(c3)C(=O)N([C@@H]3CCC(=O)NC3=O)C4=O)C2)C1 (stereo partly drawn) [Compound D244]
< 10 | COc1cc(-c2cn(C)c(=O)c3cnccc23)cc(OC)c1CN(C)CCCCN1CCCC2(CC(Oc3ccc4c(c3)C(=O)N([C@H]3CCC(=O)NC3=O)C4=O)C2)C1 (stereo partly drawn) [Compound D246]
10 to 100 | COc1cc(-c2cn(C)c(=O)c3cnccc23)cc(OC)c1CN(C)CCCCN1CC(Oc2ccc3c(c2)C(=O)N(C2CCC(=O)NC2=O)C3=O)C1 (stereo not drawn) [Compound D249]
< 10 | COc1cc(-c2cn(C)c(=O)c3cnccc23)cc(OC)c1CN(C)CCCCN1CC2(CC(Oc3ccc4c(c3)C(=O)N(C3CCC(=O)NC3=O)C4=O)C2)C1 (stereo not drawn) [Compound D251]
< 10 | COc1cc(-c2cn(C)c(=O)c3cnccc23)cc(OC)c1CN(C)CCCCN1CCC2(CC(Oc3ccc4c(c3)C(=O)N(C3CCC(=O)NC3=O)C4=O)C2)C1 (stereo not drawn) [Compound D253]
< 10 | COc1cc(-c2cn(C)c(=O)c3cnccc23)cc(OC)c1CN(C)C(=O)CCCCNC1CC2(CCN(c3ccc4c(c3)C(=O)N(C3CCC(=O)NC3=O)C4=O)CC2)C1 (stereo not drawn) [Compound D256]
< 10 | COc1cc(-c2cn(C)c(=O)c3cnccc23)cc(OC)c1CN(C)CCCCN1CC2(CCC(Oc3ccc4c(c3)C(=O)N(C3CCC(=O)NC3=O)C4=O)C2)C1 (stereo not drawn) [Compound D259]
< 10 | COc1cc(-c2cn(C)c(=O)c3cnccc23)cc(OC)c1CN(C)C(=O)CCCCNC1CC2(C1)CC(Oc1ccc3c(c1)C(=O)N(C1CCC(=O)NC1=O)C3=O)C2 (stereo not drawn) [Compound D260]
< 10 | COc1cc(-c2cn(C)c(=O)c3cnccc23)cc(OC)c1CN(C)C(=O)CCCCN1CCCC2(CC(Oc3ccc4c(c3)C(=O)N([C@@H]3CCC(=O)NC3=O)C4=O)C2)C1 (stereo partly drawn) [Compound D261]
< 10 | COc1cc(-c2cn(C)c(=O)c3cnccc23)cc(OC)c1CN(C)C(=O)CCCCN1CCCC2(CC(Oc3ccc4c(c3)C(=O)N([C@H]3CCC(=O)NC3=O)C4=O)C2)C1 (stereo partly drawn) [Compound D262]
< 10 | COc1cc(-c2cn(C)c(=O)c3cnccc23)cc(OC)c1CN(C)C(=O)CCCCN1CCC2(CC(Oc3ccc4c(c3)C(=O)N(C3CCC(=O)NC3=O)C4=O)C2)C1 (stereo not drawn) [Compound D263]
10 to 100 | COc1cc(-c2cn(C)c(=O)c3cnccc23)cc(OC)c1CN1CC(CC(=O)N2CCCC3(CC(Oc4ccc5c(c4)C(=O)N([C@@H]4CCC(=O)NC4=O)C5=O)C3)C2)C1 (stereo partly drawn) [Compound D264]
100 to 1000 | COc1cc(-c2cn(C)c(=O)c3cnccc23)cc(OC)c1CN1CC(CC(=O)N2CCCC3(CC(Oc4ccc5c(c4)C(=O)N([C@H]4CCC(=O)NC4=O)C5=O)C3)C2)C1 (stereo partly drawn) [Compound D265]
